The numbers were not newly measured in patent publication US20240342131A1, “Multivitamin for Cystic Fibrosis Patients Undergoing Cystic Fibrosis Transmembrance Conductance Regulator Gene Modulator Therapy” (priority 2021, published 2024), which cites them from elsewhere.

Molecules are shown by their SMILES.

For the data set the following is noted: high doses.

As to `O=C1O[C@H]([C@@H](O)CO)C(O)=C1O` [vitamin C], the side effect entry is recorded as “secretory diarrhea”.
